Here are results for eight compounds from patent US9499550B2 (BRISTOL-MYERS SQUIBB COMPANY, priority 2012, dated 2016).

Like-named read-outs stand apart in the source and are kept apart here. Some results are limits rather than exact numbers.

The subject of assay [1] is HCV genotype 1b (Con1) replicon in HUH-7 cells. The experiment in a line: HCV replicon luciferase reporter assay, genotype 1b. The class given is cell-based. The settings on record: Hepatitis C virus, Huh-7, 72 h, HCV genotype 1b replicon luciferase, 3 days incubation. In outline: (§1)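 Replicon inhibition for both genotypes was measured as Renilla luciferase signal (EnduRen, 7.5 μM final, 2 h) after 3-day, 37° C exposure of replicon-bearing HUH-7 cells in 4% FCS DMEM, 0.5% DMSO. The 1b construct carries S1179I; the 1a H77 construct carries P1496L and S2204I. Twenty-point, 3-fold dilutions were fitted four-parametrically for EC50, and CC50 was taken from multiplexed Cell Titer-Blue.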
For orientation: Replicon systems follow genome replication, usually without infectious particles.

Assay [2] has as its system HCV genotype 1a (H77 strain) replicon in HUH-7 cells. The experiment in a line: HCV replicon luciferase reporter assay, genotype 1a. The class given is cell-based. The settings on record: Hepatitis C virus, Huh-7, 72 h, HCV genotype 1a replicon luciferase, 3 days incubation. Put shortly: as §1

One may read the EC50 as the concentration giving half of the maximal effect.

Regarding `C[C@@H]1CC/C=C\[C@@H]2C[C@@]2(C(=O)NS(=O)(=O)C2CC2)NC(=O)[C@@H]2C[C@@H](Oc3nccc4c5c(ccc34)N(C)CCO5)CN2C(=O)[C@@H](NC(=O)O[C@@H]2C[C@@H]3C[C@@H]3C2)[C@H](C)C1` [Compound 5292, (1R,3r,5S)-bicyclo[3.1.0]hexan-3-yl((2R,6S,7R,9R,13aS,14aR,16aS,Z)-14a-((cyclopropylsulfonyl)carbamoyl)-7,9-dimethyl-2-((4-methyl-3,4-dihydro-2H-[1,4]oxazino[2,3-f]isoquinolin-7-yl)oxy)-5,16-dioxo-1,2,3,5,6,7,8,9,10,11,13a,14,14a,15,16,16a-hexadecahydrocyclopropa[e]pyrrolo[1,2-a][1,4]diazacyclopentadecin-6-yl)carbamate], the 50% effective concentration (EC50) is below 5.46 nM in assay [1] (read-out: LE_1b (EC50, range)) and below 5.46 nM in assay [2] (read-out: LE_1a (EC50, range)).

Regarding `C[C@H]1CC/C=C\[C@@H]2C[C@@]2(C(=O)NS(=O)(=O)C2(C)CC2)NC(=O)[C@@H]2C[C@@H](Oc3nccc4c5c(ccc34)N(C)CCO5)CN2C(=O)[C@@H](NC(=O)OC(C)(C)C)[C@H](C)C1` [Compound 5293, tert-butyl ((2R,6S,7R,9S,13aS,14aR,16aS,Z)-7,9-dimethyl-2-((4-methyl-3,4-dihydro-2H-[1,4]oxazino[2,3-f]isoquinolin-7-yl)oxy)-14a-(((1-methylcyclopropyl)sulfonyl)carbamoyl)-5,16-dioxo-1,2,3,5,6,7,8,9,10,11,13a,14,14a,15,16,16a-hexadecahydrocyclopropa[e]pyrrolo[1,2-a][1,4]diazacyclopentadecin-6-yl)carbamate], the EC50 is below 5.46 nM in assay [1] (read-out: LE_1b (EC50, range)) and 4.82 to 103 nM in assay [2] (read-out: LE_1a (EC50, range)).

With `C[C@@H]1CC/C=C\[C@@H]2C[C@@]2(C(=O)NS(=O)(=O)C2(C)CC2)NC(=O)[C@@H]2C[C@@H](Oc3nccc4c5c(ccc34)N(C)CCO5)CN2C(=O)[C@@H](NC(=O)OC(C)(C)C)[C@H](C)C1` [Compound 5294, tert-butyl ((2R,6S,7R,9R,13aS,14aR,16aS,Z)-7,9-dimethyl-2-((4-methyl-3,4-dihydro-2H-[1,4]oxazino[2,3-f]isoquinolin-7-yl)oxy)-14a-(((1-methylcyclopropyl)sulfonyl)carbamoyl)-5,16-dioxo-1,2,3,5,6,7,8,9,10,11,13a,14,14a,15,16,16a-hexadecahydrocyclopropa[e]pyrrolo[1,2-a][1,4]diazacyclopentadecin-6-yl)carbamate], the concentration for a half-maximal effect (EC50) is below 5.46 nM in assay [1] (read-out: LE_1b (EC50, range)) and below 5.46 nM in assay [2] (read-out: LE_1a (EC50, range)).

On to `C[C@H]1CC/C=C\[C@@H]2C[C@@]2(C(=O)NS(=O)(=O)C2(C)CC2)NC(=O)[C@@H]2C[C@@H](Oc3nccc4c5c(ccc34)N(C)CCO5)CN2C(=O)[C@@H](NC(=O)OC(C)(C)C(F)(F)F)[C@H](C)C1` [Compound 5295, 1,1,1-trifluoro-2-methylpropan-2-yl((2R,6S,7R,9S,13aS,14aR,16aS,Z)-7,9-dimethyl-2-((4-methyl-3,4-dihydro-2H-[1,4]oxazino[2,3-f]isoquinolin-7-yl)oxy)-14a-(((1-methylcyclopropyl)sulfonyl)carbamoyl)-5,16-dioxo-1,2,3,5,6,7,8,9,10,11,13a,14,14a,15,16,16a-hexadecahydrocyclopropa[e]pyrrolo[1,2-a][1,4]diazacyclopentadecin-6-yl)carbamate], for which the EC50 in assay [1] (read-out: LE_1b (EC50, range)) was below 5.46 nM; in assay [2] (read-out: LE_1a (EC50, range)), 4.82 to 103 nM.

With `C[C@@H]1CC/C=C\[C@@H]2C[C@@]2(C(=O)NS(=O)(=O)C2(C)CC2)NC(=O)[C@@H]2C[C@@H](Oc3nccc4c5c(ccc34)N(C)CCO5)CN2C(=O)[C@@H](NC(=O)OC(C)(C)C(F)(F)F)[C@H](C)C1` [Compound 5296, 1,1,1-trifluoro-2-methylpropan-2-yl((2R,6S,7R,9R,13aS,14aR,16aS,Z)-7,9-dimethyl-2-((4-methyl-3,4-dihydro-2H-[1,4]oxazino[2,3-f]isoquinolin-7-yl)oxy)-14a-(((1-methylcyclopropyl)sulfonyl)carbamoyl)-5,16-dioxo-1,2,3,5,6,7,8,9,10,11,13a,14,14a,15,16,16a-hexadecahydrocyclopropa[e]pyrrolo[1,2-a][1,4]diazacyclopentadecin-6-yl)carbamate], the concentration giving a half-maximal response (EC50) was below 5.46 nM in assay [1] (read-out: LE_1b (EC50, range)) and below 5.46 nM in assay [2] (read-out: LE_1a (EC50, range)).

`[2H]C([2H])([2H])C(OC(=O)N[C@@H]1C(=O)N2C[C@H](Oc3nccc4c5c(ccc34)N(C)CCO5)C[C@H]2C(=O)N[C@]2(C(=O)NS(=O)(=O)C3(C)CC3)C[C@H]2/C=C\CC[C@H](C)C[C@H]1C)(C([2H])([2H])[2H])C(F)(F)F` [Compound 5297, 1,1,1,3,3,3-hexadeutero-2-(trifluoromethyl)propan-2-yl((2R,6S,7R,9S,13aS,14aR,16aS,Z)-7,9-dimethyl-2-((4-methyl-3,4-dihydro-2H-[1,4]oxazino[2,3-f]isoquinolin-7-yl)oxy)-14a-(((1-methylcyclopropyl)sulfonyl)carbamoyl)-5,16-dioxo-1,2,3,5,6,7,8,9,10,11,13a,14,14a,15,16,16a-hexadecahydrocyclopropa[e]pyrrolo[1,2-a][1,4]diazacyclopentadecin-6-yl)carbamate]: the EC50 was 3.16 nM in assay [1] (read-out: LE_1b (EC50)); below 5.46 nM in assay [1] (read-out: LE_1b (EC50, range)); 7.06 nM in assay [2] (read-out: LE_1a (EC50)); 4.82 to 103 nM in assay [2] (read-out: LE_1a (EC50, range)).

For the compound `[2H]C([2H])([2H])C(OC(=O)N[C@@H]1C(=O)N2C[C@H](Oc3nccc4c5c(ccc34)N(C)CCO5)C[C@H]2C(=O)N[C@]2(C(=O)NS(=O)(=O)C3(C)CC3)C[C@H]2/C=C\CC[C@@H](C)C[C@H]1C)(C([2H])([2H])[2H])C(F)(F)F` [Compound 5298, 1,1,1,3,3,3-hexadeutero-2-(trifluoromethyl)propan-2-yl((2R,6S,7R,9R,13aS,14aR,16aS,Z)-7,9-dimethyl-2-((4-methyl-3,4-dihydro-2H-[1,4]oxazino[2,3-f]isoquinolin-7-yl)oxy)-14a-(((1-methylcyclopropyl)sulfonyl)carbamoyl)-5,16-dioxo-1,2,3,5,6,7,8,9,10,11,13a,14,14a,15,16,16a-hexadecahydrocyclopropa[e]pyrrolo[1,2-a][1,4]diazacyclopentadecin-6-yl)carbamate], the EC50 is below 5.46 nM in assay [1] (read-out: LE_1b (EC50, range)) and below 5.46 nM in assay [2] (read-out: LE_1a (EC50, range)).

As to `C[C@H]1CC/C=C\[C@@H]2C[C@@]2(C(=O)NS(=O)(=O)C2(C)CC2)NC(=O)[C@@H]2C[C@@H](Oc3nccc4c5c(ccc34)N(C)CCO5)CN2C(=O)[C@@H](NC(=O)O[C@@H]2C[C@@H]3C[C@@H]3C2)[C@H](C)C1` [Compound 5299, (1R,3r,5S)-bicyclo[3.1.0]hexan-3-yl((2R,6S,7R,9S,13aS,14aR,16aS,Z)-7,9-dimethyl-2-((4-methyl-3,4-dihydro-2H-[1,4]oxazino[2,3-f]isoquinolin-7-yl)oxy)-14a-(((1-methylcyclopropyl)sulfonyl)carbamoyl)-5,16-dioxo-1,2,3,5,6,7,8,9,10,11,13a,14,14a,15,16,16a-hexadecahydrocyclopropa[e]pyrrolo[1,2-a][1,4]diazacyclopentadecin-6-yl)carbamate], the concentration for a half-maximal effect (EC50) in assay [1] (read-out: LE_1b (EC50, range)) was below 5.46 nM; in assay [2] (read-out: LE_1a (EC50, range)), below 5.46 nM.
